# According to publication PMC5218480 (PLoS ONE, 2017):
# System: MV-4-11 cells
# Assay: Gene expression microarray analysis (Affymetrix PrimeView) and GSEA
# Type: cell-based, human
# Parameters: RFU PODN (11730768_x_at) / Fold change /veh PODN (11730768_x_at) / RFU LINC00158 (11744669_a_at) / Fold change /veh LINC00158 (11744669_a_at) / RFU DUSP10 (11751237_a_at) / Fold change /veh DUSP10 (11751237_a_at) / RFU ID3 (11757404_x_at) / Fold change /veh ID3 (11757404_x_at) / RFU PLEKHG5 (11737974_s_at) / Fold change /veh PLEKHG5 (11737974_s_at) / RFU LRRC4B (11730491_at) / Fold change /veh LRRC4B (11730491_at) / RFU GIMAP4 (11747438_a_at) / Fold change /veh GIMAP4 (11747438_a_at) / RFU KRT8 (11758183_x_at) / Fold change /veh KRT8 (11758183_x_at) / RFU CNN1 (11734310_a_at) / Fold change /veh CNN1 (11734310_a_at) / RFU VPS37D (11726825_at) / Fold change /veh VPS37D (11726825_at) / RFU C10orf10 (11716522_x_at) / Fold change /veh C10orf10 (11716522_x_at) / RFU KIR2DL2 /// KIR2DL4 /// KIR2DL5A /// KIR2DL5B /// KIR2DS1 /// KIR2DS2 /// KIR2DS3 /// KIR2DS4 /// KIR3DL3 /// KIR3DL3 /// KIR3DS1 (11738374_at) / Fold change /veh KIR2DL2 /// KIR2DL4 /// KIR2DL5A /// KIR2DL5B /// KIR2DS1 /// KIR2DS2 /// KIR2DS3 /// KIR2DS4 /// KIR3DL3 /// KIR3DL3 /// KIR3DS1 (11738374_at) / RFU C1QL1 (11718748_at) / Fold change /veh C1QL1 (11718748_at) / RFU TMPRSS4 (11747572_a_at) / Fold change /veh TMPRSS4 (11747572_a_at) / RFU HAMP (11756126_x_at) / Fold change /veh HAMP (11756126_x_at) / RFU RNFT2 (11725882_a_at) / Fold change /veh RNFT2 (11725882_a_at) / RFU NR4A2 (11747474_a_at) / Fold change /veh NR4A2 (11747474_a_at) / RFU ABCC12 (11746883_a_at) / Fold change /veh ABCC12 (11746883_a_at) / RFU TMEM136 (11760407_x_at) / Fold change /veh TMEM136 (11760407_x_at) / RFU CLDN22 /// WWC2 (11732394_at) / Fold change /veh CLDN22 /// WWC2 (11732394_at) / RFU HLA-DPB1 (11760878_x_at) / Fold change /veh HLA-DPB1 (11760878_x_at) / RFU SPINT1 (11716480_a_at) / Fold change /veh SPINT1 (11716480_a_at) / RFU GAP43 (11754022_s_at) / Fold change /veh GAP43 (11754022_s_at) / RFU A4GNT (11735810_at) / Fold change /veh A4GNT (11735810_at) / RFU PRB3 (11715151_x_at) / Fold change /veh PRB3 (11715151_x_at) / RFU TUBB4B (11761932_at) / Fold change /veh TUBB4B (11761932_at) / RFU CAPN14 (11732068_a_at) / Fold change /veh CAPN14 (11732068_a_at) / RFU TMCC2 (11721928_a_at) / Fold change /veh TMCC2 (11721928_a_at) / RFU IRGQ (11745062_a_at) / Fold change /veh IRGQ (11745062_a_at) / RFU FAM174B (11720279_a_at) / Fold change /veh FAM174B (11720279_a_at) / RFU TMPRSS4 (11748680_a_at) / Fold change /veh TMPRSS4 (11748680_a_at) / RFU FAM212B (11763350_a_at) / Fold change /veh FAM212B (11763350_a_at) / RFU PLEKHG5 (11743358_a_at) / Fold change /veh PLEKHG5 (11743358_a_at) / RFU ZSCAN30 (11745921_a_at) / Fold change /veh ZSCAN30 (11745921_a_at) / RFU CMKLR1 (11741424_a_at) / Fold change /veh CMKLR1 (11741424_a_at) / RFU LOC101060620 /// MAPK8IP1 (11723275_at) / Fold change /veh LOC101060620 /// MAPK8IP1 (11723275_at) / RFU SPTSSB (11747773_x_at) / Fold change /veh SPTSSB (11747773_x_at) / RFU PRSS12 (11739890_at) / Fold change /veh PRSS12 (11739890_at) / RFU BIN1 (11741810_x_at) / Fold change /veh BIN1 (11741810_x_at) / RFU WNT11 (11732464_a_at) / Fold change /veh WNT11 (11732464_a_at) / RFU C10orf10 (11716521_a_at) / Fold change /veh C10orf10 (11716521_a_at) / RFU C5orf56 (11738089_at) / Fold change /veh C5orf56 (11738089_at) / RFU CYB561 (11721691_x_at) / Fold change /veh CYB561 (11721691_x_at) / RFU ANKRD19P (11752326_a_at) / Fold change /veh ANKRD19P (11752326_a_at) / RFU OR2T12 /// OR2T33 /// OR2T8 (11738714_s_at) / Fold change /veh OR2T12 /// OR2T33 /// OR2T8 (11738714_s_at) / RFU VCAN (11748164_a_at) / Fold change /veh VCAN (11748164_a_at) / RFU JSRP1 (11732532_at) / Fold change /veh JSRP1 (11732532_at) / RFU KRTAP10-11 (11738290_x_at) / Fold change /veh KRTAP10-11 (11738290_x_at) / RFU MYO3A (11730013_a_at) / Fold change /veh MYO3A (11730013_a_at) / RFU EBF3 (11725865_a_at) / Fold change /veh EBF3 (11725865_a_at) / RFU CAMK2N1 (11719241_x_at) / Fold change /veh CAMK2N1 (11719241_x_at) / RFU C5orf56 (11738088_a_at) / Fold change /veh C5orf56 (11738088_a_at) / RFU OLFML3 (11715873_a_at) / Fold change /veh OLFML3 (11715873_a_at) / RFU LOC100653217 /// NTM (11731650_a_at) / Fold change /veh LOC100653217 /// NTM (11731650_a_at) / RFU MAPK11 (11762145_a_at) / Fold change /veh MAPK11 (11762145_a_at) / RFU FIZ1 (11724087_x_at) / Fold change /veh FIZ1 (11724087_x_at) / RFU OASL (11726364_x_at) / Fold change /veh OASL (11726364_x_at) / RFU SOX15 (11748057_x_at) / Fold change /veh SOX15 (11748057_x_at) / RFU CD79A (11719716_a_at) / Fold change /veh CD79A (11719716_a_at) / RFU HIST1H1D (11736915_at) / Fold change /veh HIST1H1D (11736915_at) / RFU CASKIN2 (11723855_a_at) / Fold change /veh CASKIN2 (11723855_a_at) / RFU LOC730098 (11760151_x_at) / Fold change /veh LOC730098 (11760151_x_at) / RFU OR4N2 (11742367_at) / Fold change /veh OR4N2 (11742367_at) / RFU PRRT2 (11749266_a_at) / Fold change /veh PRRT2 (11749266_a_at) / RFU SNX32 (11753110_a_at) / Fold change /veh SNX32 (11753110_a_at) / RFU CDHR5 (11726645_a_at) / Fold change /veh CDHR5 (11726645_a_at) / RFU RCAN1 (11760418_a_at) / Fold change /veh RCAN1 (11760418_a_at) / RFU FAM167A (11723789_a_at) / Fold change /veh FAM167A (11723789_a_at) / RFU FAM26E (11764081_at) / Fold change /veh FAM26E (11764081_at) / RFU ISYNA1 (11749810_s_at) / Fold change /veh ISYNA1 (11749810_s_at) / RFU ACY1 (11761880_at) / Fold change /veh ACY1 (11761880_at) / RFU 11764098_at / Fold change /veh 11764098_at / RFU SAMD14 (11745864_x_at) / Fold change /veh SAMD14 (11745864_x_at) / RFU NPB (11741838_a_at) / Fold change /veh NPB (11741838_a_at) / RFU TMPRSS6 (11731388_a_at) / Fold change /veh TMPRSS6 (11731388_a_at) / RFU KRTAP10-2 (11738614_at) / Fold change /veh KRTAP10-2 (11738614_at) / RFU ARHGAP8 /// PRR5-ARHGAP8 (11727945_x_at) / Fold change /veh ARHGAP8 /// PRR5-ARHGAP8 (11727945_x_at) / RFU KRTAP5-7 /// NADSYN1 (11734609_at) / Fold change /veh KRTAP5-7 /// NADSYN1 (11734609_at) / RFU RASL12 (11751679_a_at) / Fold change /veh RASL12 (11751679_a_at) / RFU CDKN2B (11736163_a_at) / Fold change /veh CDKN2B (11736163_a_at) / RFU PRF1 (11729649_at) / Fold change /veh PRF1 (11729649_at) / RFU, ZNF638 /// ZNF638-IT1 / Fold change vs veh, ZNF638 /// ZNF638-IT1 / RFU, PANK3 / Fold change vs veh, PANK3 / RFU, SH3YL1 / Fold change vs veh, SH3YL1 / RFU, ZEB2 / Fold change vs veh, ZEB2 / RFU, NRIP1 / Fold change vs veh, NRIP1 / RFU, PTTG1IP / Fold change vs veh, PTTG1IP / RFU, CAPN2 / Fold change vs veh, CAPN2 / RFU, MED14 / Fold change vs veh, MED14 / RFU, SNORA58 / Fold change vs veh, SNORA58 / RFU, C1orf63 / Fold change vs veh, C1orf63 / RFU, LRRFIP1 / Fold change vs veh, LRRFIP1 / RFU, NDUFAF7 / Fold change vs veh, NDUFAF7 / RFU, SLC12A2 / Fold change vs veh, SLC12A2 / RFU, IBTK / Fold change vs veh, IBTK / RFU, ESF1 / Fold change vs veh, ESF1 / Fold change vs veh, TMEM50B / RFU, TAOK1 / Fold change vs veh, TAOK1 / RFU, ACBD3 / Fold change vs veh, ACBD3 / RFU, TMA16 / Fold change vs veh, TMA16 / RFU, RWDD3 / Fold change vs veh, RWDD3 / RFU, BCAT1 / Fold change vs veh, BCAT1 / RFU, EDEM3 / Fold change vs veh, EDEM3 / RFU, TMEM33 / Fold change vs veh, TMEM33 / RFU, WDR75 / Fold change vs veh, WDR75 / RFU, AHCTF1 / Fold change vs veh, AHCTF1 / RFU, TFRC / Fold change vs veh, TFRC / RFU, ZDHHC17 / Fold change vs veh, ZDHHC17 / RFU, NOM1 / Fold change vs veh, NOM1 / RFU, ARL8B / Fold change vs veh, ARL8B / RFU, ZBTB11 / Fold change vs veh, ZBTB11 / RFU, TAMM41 / Fold change vs veh, TAMM41 / RFU, KIAA1704 /// LOC100996395 / Fold change vs veh, KIAA1704 /// LOC100996395 / RFU, ING1 / Fold change vs veh, ING1 / RFU, TRMT61B / Fold change vs veh, TRMT61B / RFU, FUBP3 / Fold change vs veh, FUBP3 / RFU, TP53 / Fold change vs veh, TP53 / RFU, TNKS2 / Fold change vs veh, TNKS2 / RFU, ZFP14 / Fold change vs veh, ZFP14 / RFU, ACTR2 / Fold change vs veh, ACTR2 / RFU, PPP3R1 / Fold change vs veh, PPP3R1 / RFU, PIK3R1 / Fold change vs veh, PIK3R1 / RFU, HNRNPA1 / Fold change vs veh, HNRNPA1 / RFU, RNF170 / Fold change vs veh, RNF170 / RFU, ZNF28 / Fold change vs veh, ZNF28 / RFU, RNGTT / Fold change vs veh, RNGTT / RFU, OGT / Fold change vs veh, OGT / RFU, BRD1 / Fold change vs veh, BRD1 / RFU, MARS / Fold change vs veh, MARS / RFU, ZNF655 / Fold change vs veh, ZNF655 / RFU, FAHD1 / Fold change vs veh, FAHD1 / RFU, BDP1 / Fold change vs veh, BDP1 / RFU, LRRCC1 / Fold change vs veh, LRRCC1 / RFU, ARID1A / Fold change vs veh, ARID1A / RFU, ZNF146 / Fold change vs veh, ZNF146 / RFU, ZNF330 / Fold change vs veh, ZNF330 / RFU, GPN3 / Fold change vs veh, GPN3 / RFU, C9orf123 / Fold change vs veh, C9orf123 / RFU, N4BP2L2 / Fold change vs veh, N4BP2L2 / RFU, ARFIP1 / Fold change vs veh, ARFIP1 / RFU, FAM179B / Fold change vs veh, FAM179B / RFU, BCL10 / Fold change vs veh, BCL10 / RFU, UHRF1BP1L / Fold change vs veh, UHRF1BP1L / RFU, BET1 / Fold change vs veh, BET1 / RFU, CNOT2 / Fold change vs veh, CNOT2 / RFU, ZNF268 / Fold change vs veh, ZNF268 / Fold change vs veh, ZNF507 / RFU, DGCR2 / Fold change vs veh, DGCR2 / RFU, WDSUB1 / Fold change vs veh, WDSUB1 / Fold change vs veh, HSP90B1 /// MIR3652 / RFU, ADSS / Fold change vs veh, ADSS / RFU, GK / Fold change vs veh, GK / RFU, ZNF148 / Fold change vs veh, ZNF148 / RFU, TAF9 / Fold change vs veh, TAF9 / RFU, SLC1A5 / Fold change vs veh, SLC1A5 / RFU, SLMO2 / Fold change vs veh, SLMO2 / RFU, ABCC4 / Fold change vs veh, ABCC4 / RFU, LOC101060439 /// RAP1B / Fold change vs veh, LOC101060439 /// RAP1B / RFU, RFX7 / Fold change vs veh, RFX7 / RFU, GTPBP10 / Fold change vs veh, GTPBP10 / RFU, CNEP1R1 / Fold change vs veh, CNEP1R1 / RFU, BIVM-ERCC5 /// ERCC5 / Fold change vs veh, BIVM-ERCC5 /// ERCC5 / RFU, ILF3 / Fold change vs veh, ILF3 / RFU 11762660_at / Fold change /veh 11762660_at / RFU VCAN (11757783_s_at) / Fold change /veh VCAN (11757783_s_at) / RFU DDX43 (11728927_at) / Fold change /veh DDX43 (11728927_at) / RFU KRT8 (11758188_x_at) / Fold change /veh KRT8 (11758188_x_at) / RFU NKD1 (11759106_at) / Fold change /veh NKD1 (11759106_at) / RFU SRD5A1 (11742802_a_at) / Fold change /veh SRD5A1 (11742802_a_at) / RFU TPSAB1 /// TPSB2 (11721975_s_at) / Fold change /veh TPSAB1 /// TPSB2 (11721975_s_at) / RFU GSTM3 (11746129_a_at) / Fold change /veh GSTM3 (11746129_a_at) / RFU IL23R (11737362_x_at) / Fold change /veh IL23R (11737362_x_at) / RFU TMEM51 (11727254_a_at) / Fold change /veh TMEM51 (11727254_a_at) / RFU PIWIL2 (11732686_x_at) / Fold change /veh PIWIL2 (11732686_x_at) / RFU ORM1 (11744905_x_at) / Fold change /veh ORM1 (11744905_x_at) / RFU CCDC152 (11743942_at) / Fold change /veh CCDC152 (11743942_at) / RFU ECM1 (11717891_a_at) / Fold change /veh ECM1 (11717891_a_at) / RFU IL23R (11748794_a_at) / Fold change /veh IL23R (11748794_a_at) / RFU TNFAIP8L3 (11732012_x_at) / Fold change /veh TNFAIP8L3 (11732012_x_at) / RFU MBOAT4 (11741988_at) / Fold change /veh MBOAT4 (11741988_at) / RFU 11764193_at / Fold change /veh 11764193_at / RFU TMEM53 (11763286_at) / Fold change /veh TMEM53 (11763286_at) / RFU MAGEB2 (11727129_at) / Fold change /veh MAGEB2 (11727129_at) / RFU TMEM200A (11744735_a_at) / Fold change /veh TMEM200A (11744735_a_at) / RFU CCDC152 (11751479_a_at) / Fold change /veh CCDC152 (11751479_a_at) / RFU FAM211A (11726209_a_at) / Fold change /veh FAM211A (11726209_a_at) / RFU RGS16 (11746705_a_at) / Fold change /veh RGS16 (11746705_a_at) / RFU VCAN (11755009_s_at) / Fold change /veh VCAN (11755009_s_at) / RFU RHOB (11743442_s_at) / Fold change /veh RHOB (11743442_s_at) / RFU RGS16 (11720943_a_at) / Fold change /veh RGS16 (11720943_a_at) / RFU RGS16 (11720944_at) / Fold change /veh RGS16 (11720944_at) / RFU, VPS4B / Fold change vs veh, VPS4B / RFU, CREB1 / Fold change vs veh, CREB1 / RFU, DNAJC13 / Fold change vs veh, DNAJC13 / RFU, GNAQ / Fold change vs veh, GNAQ / RFU, CDK5R1 / Fold change vs veh, CDK5R1 / RFU, ZRANB3 / Fold change vs veh, ZRANB3 / RFU, CUL4A / Fold change vs veh, CUL4A / RFU, CCNY / Fold change vs veh, CCNY / RFU, UFL1 / Fold change vs veh, UFL1 / RFU, COG3 / Fold change vs veh, COG3 / RFU, DIAPH2 / Fold change vs veh, DIAPH2 / RFU, SKA2 / Fold change vs veh, SKA2 / RFU, AFF3 / Fold change vs veh, AFF3 / RFU, LMF1 / Fold change vs veh, LMF1 / RFU, IPO11 / Fold change vs veh, IPO11 / RFU, DFFB / Fold change vs veh, DFFB / RFU, FOXP1 / Fold change vs veh, FOXP1 / RFU, CARD8 / Fold change vs veh, CARD8 / RFU, STRN3 / Fold change vs veh, STRN3 / RFU, ADK / Fold change vs veh, ADK / RFU, RASSF2 / Fold change vs veh, RASSF2 / RFU, WIPF1 / Fold change vs veh, WIPF1 / RFU, LARP1B / Fold change vs veh, LARP1B / RFU, RASA1 / Fold change vs veh, RASA1 / RFU, RB1 / Fold change vs veh, RB1 / RFU, PPFIA1 / Fold change vs veh, PPFIA1 / RFU, MAT2A / Fold change vs veh, MAT2A / RFU, CCT5 / Fold change vs veh, CCT5 / RFU, WDR92 / Fold change vs veh, WDR92 / RFU, CUX1 / Fold change vs veh, CUX1 / RFU, TTC7A / Fold change vs veh, TTC7A / RFU, TMEM135 / Fold change vs veh, TMEM135 / RFU, DEPTOR / Fold change vs veh, DEPTOR / RFU, CPM / Fold change vs veh, CPM / RFU, DNAJB6 / Fold change vs veh, DNAJB6 / RFU, CACNA2D3 / Fold change vs veh, CACNA2D3 / RFU, DTX4 / Fold change vs veh, DTX4 / RFU, TFCP2 / Fold change vs veh, TFCP2 / RFU, GMCL1 /// GMCL1P1 / Fold change vs veh, GMCL1 /// GMCL1P1 / RFU, AEBP2 / Fold change vs veh, AEBP2 / RFU, SNHG1 /// SNORD22 /// SNORD25 /// SNORD26 /// SNORD27 /// SNORD28 /// SNORD29 /// SNORD31 / Fold change vs veh, SNHG1 /// SNORD22 /// SNORD25 /// SNORD26 /// SNORD27 /// SNORD28 /// SNORD29 /// SNORD31 / Fold change (Aza/veh), C12orf56 (ProbeSet 11735607_a_at) / Fold change (ACY-1035/veh), C12orf56 (ProbeSet 11735607_a_at) / Fold change (Aza/veh), FGFR1OP (ProbeSet 11751329_s_at) / Fold change (ACY-1035/veh), FGFR1OP (ProbeSet 11751329_s_at) / Fold change (Aza/veh), VPS36 (ProbeSet 11739960_a_at) / Fold change (ACY-1035/veh), VPS36 (ProbeSet 11739960_a_at) / RFU SYPL1 (11715823_x_at) / Fold change /veh SYPL1 (11715823_x_at) / RFU IGFBP7 (11715501_s_at) / Fold change /veh IGFBP7 (11715501_s_at) / RFU REEP3 (11722064_at) / Fold change /veh REEP3 (11722064_at) / RFU IGLL1 (11728026_x_at) / Fold change /veh IGLL1 (11728026_x_at): dose or concentration left out as unconfirmed
# Conditions: MV-4-11 cells, 48 hours
smiles,measurement,value
Nc1ccc(-c2cccs2)cc1NC(=O)c1ccc2c(c1)cc(C1CC1)n2CCN1CCOCC1 [ACY-1035],RFU ARHGAP8 /// PRR5-ARHGAP8 (11727945_x_at),101.90 RFU
